Reference: patent US5494922A, “Allophanic acid derivatives” (Zeneca Limited, priority 1993, dated 1996)
Structures can show the parent of a compound that is named as a salt.

Assays:
[1] = biological target: T1, human, citrated, platelet-rich plasma (Homo sapiens, UniProt P05106+P08514); test: test (a): inhibition of ADP stimulated platelet aggregation in human, citrated, platelet-rich plasma; type: cell-based; conditions: read-out: pA2 (converted)
T1 construct: aggregating human, citrated, platelet-rich plasma; endogenous in cells; host or cells: human platelets in citrated platelet-rich plasma
Description: (i) aggregating human, citrated, platelet-rich plasma by addition of adenosine diphosphate (ADP) so as to generate a dose-response curve;
(ii) generating a dose-response curve for ADP stimulated platelet aggregation in the presence of increasing amounts of a test compound (generally in the range 10^-5 M to 10^-10 M); and
(iii) calculating a pA2 value indicating potency of platelet aggregation inhibition for the test compound, averaged over several concentrations, from the calculated 50% response value for ADP aggregation in the presence and absence of the test compound.

[2] = biological target: T2, purified human platelet fibrinogen receptor (GPIIb/IIIa) (Homo sapiens, UniProt P05106+P08514); test: test (b): GPIIb/IIIa ELISA, inhibition of biotinylated fibrinogen binding; conditions: 50% inhibition of biotinylated fibrinogen binding to GPIIb/IIIa
T2 construct: Glycoprotein IIb/IIIa is isolated from human platelet lysates; from tissue
Description: (i) Preparation of human platelet lysates
Platelet rich plasma (prp) is harvested by centrifugation (1000 rpm, 15 minutes) of whole blood anticoagulated with acid citrate dextrose (trisodium citrate 85 mM, citric acid 70 mM, d-glucose 110 mM) 1 part to 6 parts blood. Prostacyclin (PGI2, 1 μM) is added to the prp before centrifugation (2400 rpm, 15 min) and the resulting pellet is resuspended in modified Tyrodes' solution (NaCl 130 mM, […], NaHCO3, 12 mM, NaH2 PO4 0.5 mM, MgCl2 1 mM, CaCl2 20 mM, Glucose 12 mM, HEPES 5 mM) containing bovine serum albumin 3.5 g/L, PGI2 1 μM and hirudin 0.5 U/ml. The platelet suspension is centrifuged (2400 rpm, 15 minutes) and the resultant pellet resuspended in 500 μl of lysis buffer (octyl glucoside 50 mM, HEPES 10 mM, NaCl 150 mM, CaCl2 1 mM, MgCl2 1 mM, PMSF 1 mM, NEM 10 mM, leupeptin 0.1 mM), agitated at 4° C. for 15 minutes then centrifuged at 24000 rpm, 15 minutes. The supernatant is stored at 4° C. and the pellet re-suspended in 500 μl of lysis buffer. […]
96 well microtitre plates are coated with 100 μl purified human platelet fibrinogen receptor (GPIIb/IIIa) diluted in coating buffer (Tris-HCl 20 mM, NaCl 150 mM, CaCl2 1 mM, pH 7.4) and left overnight at 4° C. […] Colour is allowed to develop for 10-15 minutes before optical densities are read at 650 nm. […]

T1 sequence (P08514 32-887 limits assumed): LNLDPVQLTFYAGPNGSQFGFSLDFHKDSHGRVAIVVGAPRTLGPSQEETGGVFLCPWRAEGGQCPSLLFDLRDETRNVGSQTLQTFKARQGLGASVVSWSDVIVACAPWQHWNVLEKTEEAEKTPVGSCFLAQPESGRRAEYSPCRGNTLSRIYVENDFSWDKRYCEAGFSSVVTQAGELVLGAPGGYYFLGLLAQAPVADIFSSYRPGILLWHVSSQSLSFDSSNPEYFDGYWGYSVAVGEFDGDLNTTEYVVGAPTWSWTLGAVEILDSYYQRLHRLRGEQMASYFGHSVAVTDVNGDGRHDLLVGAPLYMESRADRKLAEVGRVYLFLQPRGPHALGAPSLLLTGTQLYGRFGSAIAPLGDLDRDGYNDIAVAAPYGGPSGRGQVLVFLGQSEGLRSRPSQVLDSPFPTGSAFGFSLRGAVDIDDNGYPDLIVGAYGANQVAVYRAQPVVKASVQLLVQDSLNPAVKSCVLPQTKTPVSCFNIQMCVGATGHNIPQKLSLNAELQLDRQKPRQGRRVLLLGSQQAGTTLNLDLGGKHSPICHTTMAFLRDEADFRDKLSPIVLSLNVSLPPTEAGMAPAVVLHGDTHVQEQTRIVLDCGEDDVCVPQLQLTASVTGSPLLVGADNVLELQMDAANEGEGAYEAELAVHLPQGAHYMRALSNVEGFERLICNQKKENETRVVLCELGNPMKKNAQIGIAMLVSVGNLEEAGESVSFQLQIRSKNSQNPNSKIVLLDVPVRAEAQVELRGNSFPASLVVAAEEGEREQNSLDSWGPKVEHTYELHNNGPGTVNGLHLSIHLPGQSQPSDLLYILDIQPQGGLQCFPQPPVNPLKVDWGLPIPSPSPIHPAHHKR
T1 sequence (P08514 891-1039 limits assumed): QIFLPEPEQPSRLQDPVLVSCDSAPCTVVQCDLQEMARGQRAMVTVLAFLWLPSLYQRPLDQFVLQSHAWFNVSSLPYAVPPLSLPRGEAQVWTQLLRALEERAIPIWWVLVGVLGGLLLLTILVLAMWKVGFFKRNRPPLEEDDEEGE
T1 sequence (P05106 27-788): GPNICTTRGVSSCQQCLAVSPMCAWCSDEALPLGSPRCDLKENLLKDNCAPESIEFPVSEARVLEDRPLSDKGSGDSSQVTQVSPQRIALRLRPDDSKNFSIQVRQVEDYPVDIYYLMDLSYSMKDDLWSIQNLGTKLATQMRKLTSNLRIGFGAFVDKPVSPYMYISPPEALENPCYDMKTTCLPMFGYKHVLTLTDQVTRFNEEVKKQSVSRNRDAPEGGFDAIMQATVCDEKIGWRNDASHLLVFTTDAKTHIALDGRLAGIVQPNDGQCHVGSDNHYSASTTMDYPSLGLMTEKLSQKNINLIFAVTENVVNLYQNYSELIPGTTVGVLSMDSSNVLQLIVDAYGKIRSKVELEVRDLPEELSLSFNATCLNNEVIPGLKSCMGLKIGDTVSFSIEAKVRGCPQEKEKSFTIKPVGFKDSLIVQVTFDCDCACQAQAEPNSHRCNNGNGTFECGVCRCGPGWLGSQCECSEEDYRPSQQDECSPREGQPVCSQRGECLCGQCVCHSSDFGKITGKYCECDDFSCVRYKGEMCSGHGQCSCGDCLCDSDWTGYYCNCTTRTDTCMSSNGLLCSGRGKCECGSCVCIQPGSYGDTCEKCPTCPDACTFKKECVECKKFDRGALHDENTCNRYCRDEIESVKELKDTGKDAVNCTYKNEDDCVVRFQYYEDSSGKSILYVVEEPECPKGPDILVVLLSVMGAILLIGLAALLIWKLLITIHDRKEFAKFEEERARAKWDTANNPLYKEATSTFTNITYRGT
T2 sequence (P08514 32-887 limits assumed): as the sequence (P08514 32-887 limits assumed) above
T2 sequence (P08514 891-1039 limits assumed): as the sequence (P08514 891-1039 limits assumed) above
T2 sequence (P05106 27-788): as the sequence (P05106 27-788) above

Kb [1] [nM]	IC50 [2] [nM]	Structure (SMILES)
31.6	126	COC(=O)COc1ccc(C(=O)NC(=O)Nc2ccc(C(=N)N)cc2)cc1 [Example 1, Methyl 4-[4-(4-amidinophenyl)allophoyl]phenoxyacetate, acetate salt]
25.1	25.1	N=C(N)c1ccc(NC(=O)NC(=O)c2ccc(OCC(=O)O)cc2)cc1 [Example 2, 4-[4-(4-Amidinophenyl)allophanoyl]phenoxyacetic acid]
